Columns and labels:
[1] = Inhibition against Alpha-maninosidase in jack bean; parameters: species or system Canavalia ensiformis
Beta-galactosidase = target: T1, Beta-galactosidase (Bos taurus, UniProt Q58D55); test: Inhibition against beta-galactosidase in bovine liver; NI is No Inhibition at 1 mM
T1 sequence (Q58D55 whole entry): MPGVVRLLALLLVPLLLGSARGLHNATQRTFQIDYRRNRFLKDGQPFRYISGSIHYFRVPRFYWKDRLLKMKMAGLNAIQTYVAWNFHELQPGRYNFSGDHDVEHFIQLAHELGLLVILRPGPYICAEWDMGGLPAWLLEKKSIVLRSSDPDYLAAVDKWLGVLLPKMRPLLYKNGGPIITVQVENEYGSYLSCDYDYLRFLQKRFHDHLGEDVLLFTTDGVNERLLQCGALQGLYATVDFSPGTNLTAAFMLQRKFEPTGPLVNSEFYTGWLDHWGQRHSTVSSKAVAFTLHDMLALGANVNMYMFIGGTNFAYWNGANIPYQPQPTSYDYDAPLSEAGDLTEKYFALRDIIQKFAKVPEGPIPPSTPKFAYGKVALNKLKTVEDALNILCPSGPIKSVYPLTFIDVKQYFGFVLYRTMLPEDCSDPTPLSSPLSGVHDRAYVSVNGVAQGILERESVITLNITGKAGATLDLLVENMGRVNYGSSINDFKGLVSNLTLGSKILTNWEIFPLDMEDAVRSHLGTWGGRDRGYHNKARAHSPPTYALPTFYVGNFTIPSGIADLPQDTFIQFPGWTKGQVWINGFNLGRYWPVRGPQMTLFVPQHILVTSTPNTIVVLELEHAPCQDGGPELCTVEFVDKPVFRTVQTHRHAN

[2] = pKa value was determined for the compound by 1H NMR titration; format: physicochemical

`c1ccc(CNC2=NCCCC2)cc1` showed a Ki [1] of 14000 µM.

`OCC1CCCC(NCc2ccccc2)=N1` (configuration not stated) showed a Ki [1] of 1400 µM.

With `OC[C@@H]1N=C(NCc2ccccc2)[C@@H](O)[C@@H](O)[C@@H]1O` the Ki (Beta-galactosidase) was “No inhibition”, the pKa [2] was 10 and the Ki [1] was 0.55 µM.

In the case of `CO[C@H]1O[C@@H](CNC2=N[C@@H](CO)[C@@H](O)[C@H](O)[C@@H]2O)[C@@H](O)[C@H](O)[C@H]1O`, the Ki (Beta-galactosidase) is reported as “No inhibition” and the Ki [1] is reported as 2.6 µM.
